According to ChEMBL document CHEMBL1201862, “PubChem BioAssay data set” (2004):
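48-hour exposure; five concentrations; linearly interpolated endpoints. GI50 = concentration required for 50% inhibition of growth.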 The source made the active and inactive calls. Cut-off read from the data, not from the text of the source: active = GI50 up to about 1.1 µM and inactive = higher.

Legend:
Test in all cases: NCI anticancer screen, dose series, 48 h
A549 = test system: A549
CCRF-CEM = test system: CCRF-CEM
EKVX = test system: EKVX
HCT-15 = test system: HCT-15
HT-29 = test system: HT-29
Hs-578T = test system: Hs-578T
K562 = test system: K562
M14 = test system: M14
MCF7 = test system: MCF7
MDA-MB-435 = test system: MDA-MB-435
MOLT-4 = test system: MOLT-4
OVCAR-5 = test system: OVCAR-5
RXF 393 = test system: RXF 393
SK-MEL-28 = test system: SK-MEL-28
SNB-19 = test system: SNB-19
SNB-75 = test system: SNB-75
SR = test system: SR
T47D = test system: T47D
TK-10 = test system: TK-10
UACC-62 = test system: UACC-62

SMILES	GI50 (A549)	GI50 (CCRF-CEM)	GI50 (EKVX)	GI50 (HCT-15)	GI50 (HT-29)	GI50 (Hs-578T)	GI50 (K562)	GI50 (M14)	GI50 (MCF7)	GI50 (MDA-MB-435)	GI50 (MOLT-4)	GI50 (OVCAR-5)	GI50 (RXF 393)	GI50 (SK-MEL-28)	GI50 (SNB-19)	GI50 (SNB-75)	GI50 (SR)	GI50 (T47D)	GI50 (TK-10)	GI50 (UACC-62)
COC(=O)c1ccc(CCC2=CC(=O)C=CC2=O)cc1	23.5 µM (inactive)	0.603 µM (active)	16 µM (inactive)	5.52 µM	23.1 µM (inactive)	24.8 µM (inactive)	2.37 µM (inactive)	15.1 µM (inactive)	6.59 µM (inactive)	11.7 µM (inactive)	1.63 µM (inactive)	18.2 µM (inactive)	12.5 µM (inactive)	9.42 µM (inactive)	22.4 µM (inactive)	16.3 µM (inactive)	2.49 µM (inactive)	2.94 µM (inactive)	19 µM (inactive)	13.7 µM (inactive)
C=C1CC2(C)CCC(OC(=O)C3(C)OC3C)C(C)(OC(C)=O)C2CC1=C(C)C (stereo not given)	> 100 µM (inactive)	96.6 µM (inactive)	> 100 µM (inactive)	> 100 µM	> 100 µM (inactive)	> 100 µM (inactive)	> 100 µM (inactive)	> 100 µM (inactive)	> 100 µM (inactive)	> 100 µM (inactive)	> 100 µM (inactive)	> 100 µM (inactive)	> 100 µM (inactive)	> 100 µM (inactive)	> 100 µM (inactive)	> 100 µM (inactive)	> 100 µM (inactive)	> 100 µM (inactive)	> 100 µM (inactive)	> 100 µM (inactive)
COc1cc(OC)cc(OCc2nc3cc(C(F)(F)F)ccc3nc2-c2ccccc2)c1	> 100 µM (inactive)	> 100 µM (inactive)	22.2 µM (inactive)	> 100 µM	29.4 µM (inactive)	69.2 µM (inactive)	> 100 µM (inactive)	> 100 µM (inactive)	> 100 µM (inactive)	> 100 µM (inactive)	> 100 µM (inactive)	> 100 µM (inactive)	> 100 µM (inactive)	> 100 µM (inactive)	> 100 µM (inactive)	> 100 µM (inactive)	> 100 µM (inactive)	48 µM (inactive)	> 100 µM (inactive)	> 100 µM (inactive)
O=c1oc2ccccc2c(Nc2ccc3c(c2)Oc2ccccc2O3)c1[N+](=O)[O-]	32.4 µM (inactive)	40.3 µM (inactive)	21.7 µM (inactive)	44.1 µM	65.2 µM (inactive)	30.1 µM (inactive)	51.8 µM (inactive)	30.3 µM (inactive)	20.3 µM (inactive)	54.3 µM (inactive)	43 µM (inactive)	35.6 µM (inactive)	17.5 µM (inactive)	21.2 µM (inactive)	17.5 µM (inactive)	14.7 µM (inactive)	38.3 µM (inactive)	28.7 µM (inactive)	21.2 µM (inactive)	17.7 µM (inactive)
C[C@]12[C@@H]3CC[C@H]1[C@@H](OC(=O)Nc1cc([N+](=O)[O-])cc([N+](=O)[O-])c1)C(=O)N2CC3	> 100 µM (inactive)	> 100 µM (inactive)	> 100 µM (inactive)	> 100 µM	> 100 µM (inactive)	> 100 µM (inactive)	> 100 µM (inactive)	> 100 µM (inactive)	> 100 µM (inactive)	> 100 µM (inactive)	> 100 µM (inactive)	> 100 µM (inactive)	> 100 µM (inactive)	> 100 µM (inactive)	> 100 µM (inactive)	19.6 µM (inactive)	> 100 µM (inactive)	> 100 µM (inactive)	> 100 µM (inactive)	> 100 µM (inactive)
CC(C)C1OC(=O)C(Cc2ccccc2)N(C)C(=O)C(C(C)C)OC(=O)C(Cc2ccccc2)N(C)C(=O)C(C(C)C)OC(=O)C(Cc2ccccc2)N(C)C1=O (stereo not given)	0.618 µM (active)	0.373 µM (active)	0.984 µM (active)	0.891 µM	0.783 µM (active)	1.18 µM (inactive)	0.838 µM (active)	0.713 µM (active)	0.647 µM (active)	0.641 µM (active)	0.508 µM (active)	1.03 µM (active)	0.887 µM (active)	0.78 µM (active)	0.805 µM (active)	1.63 µM (inactive)	1.89 µM (inactive)	1.05 µM (active)	0.757 µM (active)	0.643 µM (active)
Cc1nc2ccc(S(=O)(=O)O)cc2c(=O)n1-c1ccc(C(=O)NN2C(=O)C(Cl)C2c2cccs2)cc1 (stereo not given)	> 100 µM (inactive)	63.1 µM (inactive)	18.5 µM (inactive)	> 100 µM	> 100 µM (inactive)	> 100 µM (inactive)	> 100 µM (inactive)	18.2 µM (inactive)	> 100 µM (inactive)	27.5 µM (inactive)	> 100 µM (inactive)	> 100 µM (inactive)	> 100 µM (inactive)	> 100 µM (inactive)	> 100 µM (inactive)	50.4 µM (inactive)	> 100 µM (inactive)	31.3 µM (inactive)	> 100 µM (inactive)	> 100 µM (inactive)
O=[N+]([O-])C(=C(N1CCCCC1)N1CCCCC1)/C(Cl)=C(\Cl)[N+](=O)[O-]	19.5 µM (inactive)	5.11 µM (inactive)	13 µM (inactive)	2.17 µM	4.74 µM (inactive)	4.86 µM (inactive)	1 µM (active)	8.47 µM (inactive)	2.46 µM (inactive)	5.01 µM (inactive)	1.14 µM (inactive)	17.9 µM (inactive)	1.31 µM (inactive)	16.8 µM (inactive)	19.9 µM (inactive)	17.5 µM (inactive)	2.19 µM (inactive)	1.84 µM (inactive)	5.41 µM (inactive)	15 µM (inactive)
N=C1OC(c2cccc(Cl)c2)C(NNS(=O)(=O)c2ccccc2)=C1O (stereo not given)	80.9 µM (inactive)	2.32 µM (inactive)	68.4 µM (inactive)	12.2 µM	19.9 µM (inactive)	27.4 µM (inactive)	3.69 µM (inactive)	22.4 µM (inactive)	22.4 µM (inactive)	33 µM (inactive)	4.11 µM (inactive)	31.9 µM (inactive)	15.7 µM (inactive)	20.9 µM (inactive)	55.5 µM (inactive)	26.9 µM (inactive)	2.37 µM (inactive)	10 µM (inactive)	37.7 µM (inactive)	24.9 µM (inactive)
N#Cc1c(N2CCCC2)ncn(Cc2ccccc2)c1=S	> 100 µM (inactive)	> 100 µM (inactive)	> 79.3 µM (inactive)	> 100 µM	> 100 µM (inactive)	> 54.8 µM (inactive)	> 100 µM (inactive)	> 100 µM (inactive)	49.1 µM (inactive)	> 100 µM (inactive)	> 100 µM (inactive)	> 100 µM (inactive)	30.3 µM (inactive)	> 100 µM (inactive)	58.5 µM (inactive)	25.8 µM (inactive)	> 100 µM (inactive)	> 86.7 µM (inactive)	> 100 µM (inactive)	68.7 µM (inactive)
O=C(NC(Cc1c[nH]c2ccccc12)C(=O)O)/C(=C/c1ccccc1O)NC(=O)c1ccccc1 (stereo not given)	60.5 µM (inactive)	> 100 µM (inactive)	29.2 µM (inactive)	25.6 µM	> 100 µM (inactive)	24.6 µM (inactive)	> 100 µM (inactive)	> 100 µM (inactive)	3.08 µM (inactive)	18.9 µM (inactive)	> 100 µM (inactive)	> 100 µM (inactive)	28.5 µM (inactive)	> 100 µM (inactive)	22.7 µM (inactive)	17.4 µM (inactive)	> 100 µM (inactive)	12.1 µM (inactive)	37.7 µM (inactive)	24.2 µM (inactive)
CC1(c2nc3cc(Cl)c(Cl)cc3[nH]2)CCC(C(=O)O)C(C)(C)O1 (stereo not given)	> 100 µM (inactive)	> 100 µM (inactive)	> 100 µM (inactive)	> 100 µM	> 100 µM (inactive)	> 100 µM (inactive)	> 100 µM (inactive)	> 100 µM (inactive)	> 100 µM (inactive)	> 100 µM (inactive)	> 100 µM (inactive)	> 100 µM (inactive)	> 100 µM (inactive)	> 100 µM (inactive)	> 100 µM (inactive)	> 100 µM (inactive)	> 100 µM (inactive)	> 100 µM (inactive)	> 100 µM (inactive)	> 100 µM (inactive)
O=C1C(c2c(O)[nH]c3ccc(Cl)cc23)=Nc2ccccc21	3.58 µM (inactive)	27.4 µM (inactive)	5.07 µM (inactive)	7.73 µM	5.09 µM (inactive)	3.43 µM (inactive)	7.71 µM (inactive)	6.85 µM (inactive)	12.2 µM (inactive)	4.3 µM (inactive)	> 47 µM (inactive)	8.11 µM (inactive)	2.49 µM (inactive)	> 100 µM (inactive)	10.3 µM (inactive)	4.99 µM (inactive)	9.02 µM (inactive)	3.7 µM (inactive)	4.23 µM (inactive)	11.8 µM (inactive)
c1ccc2c(c1)nc1n2CCNC1	> 100 µM (inactive)	> 100 µM (inactive)	> 100 µM (inactive)	> 100 µM	> 100 µM (inactive)	> 100 µM (inactive)	> 100 µM (inactive)	> 100 µM (inactive)	> 100 µM (inactive)	> 100 µM (inactive)	> 100 µM (inactive)	> 100 µM (inactive)	> 100 µM (inactive)	> 100 µM (inactive)	> 100 µM (inactive)	> 100 µM (inactive)	> 100 µM (inactive)	> 100 µM (inactive)	> 100 µM (inactive)	> 100 µM (inactive)
